In patent publication US20140255392A1 (BAYER INTELLECTUAL PROPERTY GMBH, priority 2011, published 2014):

Molecular target: T1, human kinase Mps-1 (Homo sapiens, UniProt P33981)
T1 construct: N-terminally GST-tagged human full length recombinant Mps-1 kinase; GST (N); purchased Invitrogen, Karslruhe, Germany PV4071
T1 sequence (P33981 1-857): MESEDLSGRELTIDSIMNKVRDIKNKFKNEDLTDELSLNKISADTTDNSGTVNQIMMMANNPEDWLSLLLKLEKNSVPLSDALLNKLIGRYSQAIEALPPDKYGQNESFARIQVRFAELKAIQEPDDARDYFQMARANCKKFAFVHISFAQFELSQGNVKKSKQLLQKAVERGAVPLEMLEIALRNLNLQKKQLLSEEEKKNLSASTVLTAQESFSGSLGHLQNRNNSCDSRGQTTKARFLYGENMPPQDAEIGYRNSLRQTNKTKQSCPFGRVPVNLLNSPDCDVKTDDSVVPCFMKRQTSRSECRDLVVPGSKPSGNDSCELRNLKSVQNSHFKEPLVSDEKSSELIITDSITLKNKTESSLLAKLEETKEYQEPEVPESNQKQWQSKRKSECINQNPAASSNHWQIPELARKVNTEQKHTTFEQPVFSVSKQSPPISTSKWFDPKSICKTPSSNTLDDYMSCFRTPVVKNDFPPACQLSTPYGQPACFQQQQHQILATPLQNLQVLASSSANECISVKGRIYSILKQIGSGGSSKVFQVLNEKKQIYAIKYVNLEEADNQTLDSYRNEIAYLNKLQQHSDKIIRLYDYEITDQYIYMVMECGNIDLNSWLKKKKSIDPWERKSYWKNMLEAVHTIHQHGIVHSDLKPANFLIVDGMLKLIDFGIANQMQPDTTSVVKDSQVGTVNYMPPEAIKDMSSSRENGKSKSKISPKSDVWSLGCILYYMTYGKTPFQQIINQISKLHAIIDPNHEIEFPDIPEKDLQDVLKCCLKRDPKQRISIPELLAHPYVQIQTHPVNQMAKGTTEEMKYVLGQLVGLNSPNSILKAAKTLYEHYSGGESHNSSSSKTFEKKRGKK
Test: Mps-1 kinase assay (TR-FRET)
Type: biochemical
Conditions: N-terminally GST-tagged human full length recombinant Mps-1; 10 μM ATP; 1 μM peptide substrate; 60 min at 22° C.
Method: The human kinase Mps-1 phosphorylates a biotinylated substrate peptide. Detection of the phosphorylated product is achieved by time-resolved fluorescence resonance energy transfer (TR-FRET) from Europium-labelled anti-phospho-Serine/Threonine antibody as donor to streptavidin labelled with cross-linked allophycocyanin (SA-XLent) as acceptor. Compounds are tested for their inhibition of the kinase activity.
N-terminally GST-tagged human full length recombinant Mps-1 kinase (purchased from Invitrogen, Karslruhe, Germany, cat. no PV4071) was used. As substrate for the kinase reaction a biotinylated peptide of the amino-acid sequence […] (C-terminus in amide form, purchased from Biosynthan GmbH, Berlin) was used.
The concentration of Mps-1 in the assay was adjusted to the activity of the enzyme lot and was chosen appropriate to have the assay in the linear range, typical enzyme concentrations were in the range of about 1 nM (final conc. in the 5 μl assay volume).
The resulting mixture was incubated 1 h at 22° C. to allow the binding of the phosphorylated peptide to the anti-phospho(Ser/Thr)-Europium-antibody. Subsequently the amount of phosphorylated substrate was evaluated by measurement of the resonance energy transfer from the Europium-labelled anti-phospho(Ser/Thr) antibody to the Streptavidin-XLent.

| Compound | IC50 |
| --- | --- |
| Cc1cc(-c2cnc3c(NCCC(F)(F)F)cc(Sc4ccccc4N)cn23)ccc1C(=O)NC1CC1 [Example 3-4, 4-{6-[(2-aminophenyl)sulfanyl]-8-[(3,3,3-trifluoropropyl)amino]imidazo[1,2-a]pyridin-3-yl}-N-cyclopropyl-2-methylbenzamide] | 2 nM |
| CNC(=O)c1ccc(-c2cnc3c(NCCC(F)(F)F)cc(Oc4cc(F)ccc4C)cn23)cc1C [Example 25, 4-{6-(5-Fluoro-2-methylphenoxy)-8-[(3,3,3-trifluoropropyl)amino]imidazo[1,2-a]pyridin-3-yl}-N,2-dimethylbenzamide] | 2.9 nM |
| Cc1cc(-c2cnc3c(NCCC(F)(F)F)cc(Oc4cccc(OC(F)(F)F)c4)cn23)ccc1C(=O)NC1(C)CC1 [Example 76, 2-Methyl-N-(1-methylcyclopropyl)-4-{6-[3-(trifluoromethoxy)phenoxy]-8-[(3,3,3-trifluoropropyl)amino]imidazo[1,2-a]pyridin-3-yl}benzamide] | 105 nM |
| Cc1cc(-c2cnc3c(NCCC(F)(F)F)cc(C#CCO)cn23)ccc1C(=O)NC1(C)CC1 [Example 22, 4-{6-(3-hydroxyprop-1-yn-1-yl)-8-[(3,3,3-trifluoropropyl)amino]imidazo[1,2-a]pyridin-3-yl}-2-methyl-N-(1-methylcyclopropyl)benzamide] | 50 nM |
| C#Cc1cc(NCCC(F)(F)F)c2ncc(-c3ccc(C(=O)NCC)c(C)c3)n2c1 [Example 15, N-ethyl-4-{6-ethynyl-8-[(3,3,3-trifluoropropyl)amino]imidazo[1,2-a]pyridin-3-yl}-2-methylbenzamide] | 55 nM |
| Cc1cc(-c2cnc3c(NCCC(F)(F)F)cc(Oc4cccc(F)c4)cn23)ccc1C(=O)NC1(C#N)CC1 [Example 13, N-(1-cyanocyclopropyl)-4-{6-(3-fluorophenoxy)-8-[(3,3,3-trifluoropropyl)amino]imidazo[1,2-a]pyridin-3-yl}-2-methylbenzamide] | 11.1 nM |
| C#Cc1cc(NCCC(F)(F)F)c2ncc(-c3ccc(C(=O)NC4(C#N)CC4)c(C)c3)n2c1 [Example 18, N-(1-cyanocyclopropyl)-4-{6-ethynyl-8-[(3,3,3-trifluoropropyl)amino]imidazo[1,2-a]pyridin-3-yl}-2-methylbenzamide] | 65.5 nM |
| C#Cc1cc(NCCC(F)(F)F)c2ncc(-c3ccc(C(=O)N[C@@H]4C[C@H]4F)c(C)c3)n2c1 (relative stereo) [Example 16, 4-{6-ethynyl-8-[(3,3,3-trifluoropropyl)amino]imidazo[1,2-a]pyridin-3-yl}-N-[rel-(1R,2R)-2-fluorocyclopropyl]-2-methylbenzamide] | 29.4 nM |
| Cc1ccc(F)cc1Oc1cc(NCCC(F)(F)F)c2ncc(-c3ccc(C(=O)NC4(C5CC5)CC4)c(C)c3)n2c1 [Example 62, N-[1′,1′-bi(cyclopropyl)-1-yl]-4-{6-(5-fluoro-2-methylphenoxy)-8-[(3,3,3-trifluoropropyl)amino]imidazo[1,2-a]pyridin-3-yl}-2-methylbenzamide] | 49.3 nM |

Second part, the molecule after the results:

| IC50 | Compound |
| --- | --- |
| 146 nM | CNC(=O)c1ccc(-c2cnc3c(NCCC(F)(F)F)cc(CCCO)cn23)cc1C [Example 126, 4-{6-(3-hydroxypropyl)-8-[(3,3,3-trifluoropropyl)amino]imidazo[1,2-a]pyridin-3-yl}-N,2-dimethylbenzamide] |
| 65.3 nM | CCc1cc(NCCC(F)(F)F)c2ncc(-c3ccc(C(=O)N[C@H]4C[C@@H]4F)c(C)c3)n2c1 (relative stereo) [Example 104, 4-{6-Ethyl-8-[(3,3,3-trifluoropropyl)amino]imidazo[1,2-a]pyridin-3-yl}-N-[rel-(1S,2S)-2-fluorocyclopropyl]-2-methylbenzamide] |
| 13.2 nM | C=Cc1cc(NCCC(F)(F)F)c2ncc(-c3ccc(C(=O)NC4CC4)c(C)c3)n2c1 [Example 92, N-cyclopropyl-2-methyl-4-{8-[(3,3,3-trifluoropropyl)amino]-6-vinylimidazo[1,2-a]pyridin-3-yl}benzamide] |
| 3 nM | Cc1cc(-c2cnc3c(NCCC(F)(F)F)cc(-c4ccc(C(=O)NC5(C)CC5)c(C)c4)cn23)ccc1C(=O)NC1CC1 [Example 149, 4-{3-[4-(cyclopropylcarbamoyl)-3-methylphenyl]-8-[(3,3,3-trifluoropropyl)amino]imidazo[1,2-a]pyridin-6-yl}-2-methyl-N-(1-methylcyclopropyl)benzamide] |
| 816 nM | COCCNc1cc(C(=O)c2cc(F)ccc2O)cn2c(-c3ccc(C(=O)NC4CC4)c(C)c3)cnc12 [Example 174, N-cyclopropyl-4-{6-(5-fluoro-2-hydroxybenzoyl)-8-[(2-methoxyethyl)amino]imidazo[1,2-a]pyridin-3-yl}-2-methylbenzamide] |
| 12.6 nM | CNC(=O)c1ccc(-c2cnc3c(NCCC(F)(F)F)cc(-c4ccccc4O)cn23)cc1C [Example 133, 4-{6-(2-Hydroxyphenyl)-8-[(3,3,3-trifluoropropyl)amino]imidazo[1,2-a]pyridin-3-yl}-N,2-dimethylbenzamide] |
| 140 nM | C=Cc1cc(NCCC(F)(F)F)c2ncc(-c3ccc(C(=O)NC4(C)CC4)c(C)c3)n2c1 [Example 95, 2-Methyl-N-(1-methylcyclopropyl)-4-{8-[(3,3,3-trifluoropropyl)amino]-6-vinylimidazo[1,2-a]pyridin-3-yl}benzamide] |
| 33.2 nM | Cc1cc(-c2cnc3c(NCCC(F)(F)F)cc(C(C)O)cn23)ccc1C(=O)NC1CC1 (racemic) [Example 143, N-cyclopropyl-4-{6-[(1RS)-1-hydroxyethyl]-8-[(3,3,3-trifluoropropyl)amino]imidazo[1,2-a]pyridin-3-yl}-2-methylbenzamide] |
| 0.6 nM | Cc1cc(-c2cnc3c(NCCC(F)(F)F)cc(Oc4ccc(O)cc4)cn23)ccc1C(=O)NC1CC1 [Example 110, N-cyclopropyl-4-{6-(4-hydroxyphenoxy)-8-[(3,3,3-trifluoropropyl)amino]imidazo[1,2-a]pyridin-3-yl}-2-methylbenzamide] |
| 106 nM | CCc1cc(NCCC(F)(F)F)c2ncc(-c3ccc(C(=O)NC)c(C)c3)n2c1 [Example 100, 4-{6-Ethyl-8-[(3,3,3-trifluoropropyl)amino]imidazo[1,2-a]pyridin-3-yl}-N,2-dimethylbenzamide] |
| 8.6 nM | COc1ccc(Oc2cc(NCC(F)F)c3ncc(-c4ccc(C(=O)NC5CC5)c(C)c4)n3c2)cc1 [Example 162, N-cyclopropyl-4-{8-[(2,2-difluoroethyl)amino]-6-(4-methoxyphenoxy)imidazo[1,2-a]pyridin-3-yl}-2-methylbenzamide] |
| 29.4 nM | C=Cc1cc(NCCC(F)(F)F)c2ncc(-c3ccc(C(=O)N[C@H]4C[C@@H]4C)c(C)c3)n2c1 (relative stereo) [Example 98, 2-Methyl-N-[rel-(1S,2S)-2-methylcyclopropyl]-4-{8-[(3,3,3-trifluoropropyl)amino]-6-vinylimidazo[1,2-a]pyridin-3-yl}benzamide] |
| 0.5 nM | Cc1cc(-c2cnc3c(NCCC(F)(F)F)cc(Oc4ccc(O)c(F)c4)cn23)ccc1C(=O)NC1CC1 [Example 129, N-cyclopropyl-4-{6-(3-fluoro-4-hydroxyphenoxy)-8-[(3,3,3-trifluoropropyl)amino]imidazo[1,2-a]pyridin-3-yl}-2-methylbenzamide] |
